Results on 13 molecules are retold here after ChEMBL document CHEMBL1139004, “SAR and inhibitor complex structure determination of a novel class of potent and specific Aurora kinase inhibitors” (Bioorg Med Chem Lett, 2006).

One series has as its target T1, Aurora kinase A (Homo sapiens, UniProt O14965).
T1 sequence (O14965 whole entry): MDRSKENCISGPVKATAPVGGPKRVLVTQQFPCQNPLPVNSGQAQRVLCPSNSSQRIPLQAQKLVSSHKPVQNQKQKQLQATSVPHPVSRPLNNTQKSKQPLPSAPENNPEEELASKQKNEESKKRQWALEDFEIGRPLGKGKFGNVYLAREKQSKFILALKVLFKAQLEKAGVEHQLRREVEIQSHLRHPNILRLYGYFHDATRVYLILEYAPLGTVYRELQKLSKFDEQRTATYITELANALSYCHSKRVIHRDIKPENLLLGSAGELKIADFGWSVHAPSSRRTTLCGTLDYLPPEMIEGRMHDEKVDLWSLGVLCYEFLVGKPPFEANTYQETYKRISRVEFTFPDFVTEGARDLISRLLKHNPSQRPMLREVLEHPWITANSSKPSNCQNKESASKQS
The series can be described thus: Inhibitory activity against Aurora A.

Another series has as its system MCF7. The experiment in a line: Antiproliferative activity against MCF7 cell line. It counts as functional, cell-based. As to conditions: Homo sapiens.
A short description of series [1]: Aqueous solubility of the compound.
Series [2] in a line: Distribution coefficient of the compound, log D at pH 7.4. It counts as physicochemical. The settings on record: octanol/water.
The nature of series [3]: Percent of unbound ligand in rat plasma. It counts as ADME, organism-based.

Usually pIC50 stands for the negative decadic logarithm of the IC50, by convention in mol/L. Read a high pIC50 as a small IC50. Broadly, the solubility is the concentration that dissolves in the medium under given conditions. For orientation: logD means the decadic logarithm of the distribution of all forms, ionised or not, between an organic phase and buffer at a given pH. Higher therefore signals a more lipophilic compound. Usually fraction unbound stands for free concentration divided by total concentration. Low readings indicate little free substance, high ones much free substance.

pIC50: −log10 of the molar value. ≈ marks a conversion by molar mass, not a printed value. Some results are limits rather than exact numbers.

`CCc1ccc(C(=O)Nc2ncc(Nc3ncnc4cc(OCCCN5CCOCC5)c(OC)cc34)cn2)cc1` gave a pIC50 on Aurora kinase A of 7.07.

As for `COc1cc2c(Nc3cnc(NC(=O)c4cccc(Cl)c4)nc3)ncnc2cc1OCCCN1CCCCC1`, the negative logarithm of the IC50 (pIC50) is 7.62 with MCF7 and 9.10 at Aurora kinase A. For the same molecule, the solubility in series [1] came to 3600 µM (≈ 1970 µg/mL).

With `COc1cc2ncnc(Nc3ccc(NC(=O)c4ccccc4)cc3)c2cc1OC` [ANILINOQUINAZOLINE1], the pIC50 with MCF7 was 5.90; against Aurora kinase A, 6.41. Also, the logD in series [2] was found to be 3.7.

The molecule `COc1cc2c(Nc3cnc(NC(=O)c4ccccc4)nc3)ncnc2cc1OC[C@@H](O)CN1CCCCC1` registered a solubility in series [1] of 1500 µM (≈ 794 µg/mL). This counts as millimolar.

At Aurora kinase A, `CCCCC(=O)Nc1ncc(Nc2ncnc3cc(OCCCN4CCOCC4)c(OC)cc23)cn1` gave a pIC50 of 7.77.

Consider `COc1cc2c(Nc3cnc(NC(=O)c4ccc(F)c(Cl)c4)nc3)ncnc2cc1OCCCN1CCOCC1`, for which the figures for the pIC50 with MCF7 and at Aurora kinase A were 7.70 and 9.82, respectively. This molecule gave a fraction unbound in series [3] of 0.004.

For the molecule `COc1cc2c(Nc3ncc(NC(=O)c4ccccc4)cn3)ncnc2cc1OCCCN1CCOCC1`, at Aurora kinase A, the pIC50 is 6.20.

`COc1cc2c(Nc3cnc(NC(=O)c4ccncc4)nc3)ncnc2cc1OCCCN1CCOCC1` showed a pIC50 against Aurora kinase A of 6.16.

Consider `CCCN(CCC)S(=O)(=O)c1ccc(C(=O)Nc2ncc(Nc3ncnc4cc(OCCCN5CCOCC5)c(OC)cc34)cn2)cc1`, for which, at Aurora kinase A, the pIC50 was 5.41.

With `COc1cc2c(Nc3cnc(NC(=O)c4ccc(C)c(Br)c4)nc3)ncnc2cc1OCCCN1CCOCC1`, the pIC50 against Aurora kinase A is 7.15.

For the molecule `COc1cc2c(Nc3cnc(NC(=O)c4ccccc4)nc3)ncnc2cc1OCCCN1CCOCC1`, the values for the pIC50 in the series with MCF7 and against Aurora kinase A were 6.68 and 8.52, respectively. Moreover, in series [2], the logD came out at 2.7. Besides, the fraction unbound in series [3] is 0.045.

`COc1cc2c(Nc3ccc(NC(=O)c4ccccc4)cc3)ncnc2cc1OCCCN1CCOCC1` gave a pIC50 with MCF7 of 6.70. Further, the solubility in series [1] was found to be 2.5 µM (≈ 1.28 µg/mL). The fraction unbound in series [3] was 0.003.

On to `COc1cc2c(Nc3cnc(NC(=O)c4cccc(Cl)c4)nc3)ncnc2cc1OCCCN1CCOCC1`, for which the pIC50 is 7.10 with MCF7 and over 10.00 on Aurora kinase A.
